Source: ChEMBL document CHEMBL1201862, “PubChem BioAssay data set” (2004)
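Values below derive from 48-hour exposures of cells grown in 96-well plates, with endpoints linearly interpolated between the two concentrations bracketing the appropriate inhibition level. At the GI50, growth is halved.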 Calls of active or inactive are those of the source. No stated cut-off is given here; in the data, active = GI50 up to about 1.1 µM and inactive = higher.

Columns and labels:
Assay in all cases: inhibition of tumour cell growth, NCI panel, 48 h
[1] = tested on: UO-31
[2] = tested on: U-251
[3] = tested on: A498
[4] = tested on: OVCAR-5
[5] = tested on: NCI-H522
[6] = tested on: SK-MEL-5
[7] = tested on: HOP-92
[8] = tested on: HCT-116
[9] = tested on: K562
[10] = tested on: MDA-MB-231
[11] = tested on: SK-OV-3
[12] = tested on: SW-620
[13] = tested on: M14
[14] = tested on: Malme-3M
[15] = tested on: KM12
[16] = tested on: NCI-H226
[17] = tested on: UACC-257
[18] = tested on: SNB-75
[19] = tested on: PC-3
[20] = tested on: SR
[21] = tested on: EKVX
[22] = tested on: RXF 393
[23] = tested on: T47D
[24] = tested on: 786-0
[25] = tested on: SK-MEL-2
[26] = tested on: HT-29
[27] = tested on: OVCAR-3
[28] = tested on: TK-10
[29] = tested on: SK-MEL-28
[30] = tested on: NCI-H460
[31] = tested on: SF-295
[32] = tested on: SN12C
[33] = tested on: UACC-62
[34] = tested on: COLO 205
[35] = tested on: RPMI-8226
[36] = tested on: HCT-15
[37] = tested on: BT-549
[38] = tested on: MDA-N
[39] = tested on: ACHN
[40] = tested on: IGROV-1
[41] = tested on: Hs-578T
[42] = tested on: LOX IMVI
[43] = tested on: HL-60
[44] = tested on: MOLT-4
[45] = tested on: HOP-62
[46] = tested on: SNB-19
[47] = tested on: OVCAR-8
[48] = tested on: OVCAR-4
[49] = tested on: HCC 2998
[50] = tested on: A549
[51] = tested on: MCF7
[52] = tested on: SF-268
[53] = tested on: MDA-MB-435
[54] = tested on: NCI-H23
[55] = tested on: SF-539
[56] = tested on: CAKI-1
[57] = tested on: NCI/ADR-RES
[58] = tested on: CCRF-CEM
[59] = tested on: DU-145

## N/N=C(/C=C1\C(=O)Nc2ccccc21)c1ccccc1
[1]
  GI50: 32.2 µM (inactive)
[2]
  GI50: 24.4 µM (inactive)
[3]
  GI50: 28.5 µM (inactive)
[4]
  GI50: 50.9 µM (inactive)
[5]
  GI50: 27.9 µM (inactive)
[6]
  GI50: 10.5 µM (inactive)
[7]
  GI50: 24.5 µM (inactive)
[8]
  GI50: 15.3 µM (inactive)
[9]
  GI50: 5.45 µM (inactive)
[10]
  GI50: 20.3 µM (inactive)
[11]
  GI50: 32.1 µM (inactive)
[12]
  GI50: 15.9 µM (inactive)
[13]
  GI50: 15.5 µM (inactive)
[14]
  GI50: 23.5 µM (inactive)
[15]
  GI50: 11.1 µM (inactive)
[16]
  GI50: 45.8 µM (inactive)
[17]
  GI50: 36.1 µM (inactive)
[18]
  GI50: 18.7 µM (inactive)
[19]
  GI50: 20.3 µM (inactive)
[20]
  GI50: 40.8 µM (inactive)
[21]
  GI50: 32.9 µM (inactive)
[22]
  GI50: 20 µM (inactive)
[23]
  GI50: 66.4 µM (inactive)
[24]
  GI50: 25.3 µM (inactive)
[25]
  GI50: 61.8 µM (inactive)
[26]
  GI50: 19.9 µM (inactive)
[27]
  GI50: 18.2 µM (inactive)
[28]
  GI50: 42.8 µM (inactive)
[29]
  GI50: 26.7 µM (inactive)
[30]
  GI50: 28.6 µM (inactive)
[31]
  GI50: 21.4 µM (inactive)
[32]
  GI50: 26.3 µM (inactive)
[33]
  GI50: 24.6 µM (inactive)
[34]
  GI50: 19.9 µM (inactive)
[35]
  GI50: 21 µM (inactive)
[36]
  GI50: 8.43 µM
[37]
  GI50: 15.4 µM (inactive)
[38]
  GI50: 3.77 µM (inactive)
[39]
  GI50: 45.1 µM (inactive)
[40]
  GI50: 30.4 µM (inactive)
[41]
  GI50: 15.4 µM (inactive)
[42]
  GI50: 22.2 µM (inactive)
[43]
  GI50: 3.8 µM (inactive)
[44]
  GI50: 19.7 µM (inactive)
[45]
  GI50: 32.9 µM (inactive)
[46]
  GI50: 27.6 µM (inactive)
[47]
  GI50: 24 µM (inactive)
[48]
  GI50: 58.7 µM (inactive)
[49]
  GI50: 20 µM (inactive)
[50]
  GI50: 29.6 µM (inactive)
[51]
  GI50: 18.9 µM (inactive)
[52]
  GI50: 55.6 µM (inactive)
[53]
  GI50: 4.15 µM (inactive)
[54]
  GI50: 30.1 µM (inactive)
[55]
  GI50: 18.7 µM (inactive)
[56]
  GI50: 24.3 µM (inactive)
[57]
  GI50: 18.2 µM (inactive)
[58]
  GI50: 13.2 µM (inactive)
[59]
  GI50: 37.2 µM (inactive)

## C=CCNC1=C2C[C@@H](C)C[C@@H](OC)[C@@H](OC(=O)CCCN)[C@H](C)/C=C(\C)[C@@H](OC(N)=O)[C@H](OC)/C=C\C=C(/C)C(=O)NC(=CC1=O)C2=O
[1]
  GI50: 18.4 µM (inactive)
[2]
  GI50: 9.44 µM (inactive)
[3]
  GI50: 20.5 µM (inactive)
[4]
  GI50: 16 µM (inactive)
[5]
  GI50: 6.82 µM (inactive)
[6]
  GI50: 8.39 µM (inactive)
[7]
  GI50: 14.7 µM (inactive)
[8]
  GI50: 15.7 µM (inactive)
[9]
  GI50: 9.16 µM (inactive)
[10]
  GI50: 15 µM (inactive)
[11]
  GI50: 14.6 µM (inactive)
[12]
  GI50: 19.7 µM (inactive)
[13]
  GI50: 9.38 µM (inactive)
[14]
  GI50: 11.4 µM (inactive)
[15]
  GI50: 4.14 µM (inactive)
[16]
  GI50: 17.1 µM (inactive)
[17]
  GI50: 15.1 µM (inactive)
[18]
  GI50: 10.4 µM (inactive)
[19]
  GI50: 14 µM (inactive)
[20]
  GI50: 6.59 µM (inactive)
[21]
  GI50: 18.7 µM (inactive)
[22]
  GI50: 20 µM (inactive)
[23]
  GI50: 27.4 µM (inactive)
[24]
  GI50: 17.1 µM (inactive)
[25]
  GI50: 15.9 µM (inactive)
[26]
  GI50: 5.37 µM (inactive)
[27]
  GI50: 16.7 µM (inactive)
[28]
  GI50: 16.7 µM (inactive)
[29]
  GI50: 16.3 µM (inactive)
[30]
  GI50: 14.9 µM (inactive)
[31]
  GI50: 15.9 µM (inactive)
[32]
  GI50: 17.4 µM (inactive)
[33]
  GI50: 15.2 µM (inactive)
[34]
  GI50: 3.54 µM (inactive)
[35]
  GI50: 14.3 µM (inactive)
[36]
  GI50: 19.4 µM
[37]
  GI50: 8.99 µM (inactive)
[38]
  GI50: 12.6 µM (inactive)
[39]
  GI50: 18.8 µM (inactive)
[40]
  GI50: 13.5 µM (inactive)
[41]
  GI50: 20.9 µM (inactive)
[42]
  GI50: 5.45 µM (inactive)
[43]
  GI50: 4.43 µM (inactive)
[44]
  GI50: 14 µM (inactive)
[45]
  GI50: 6.24 µM (inactive)
[46]
  GI50: 15.8 µM (inactive)
[47]
  GI50: 19.4 µM (inactive)
[48]
  GI50: 20.6 µM (inactive)
[49]
  GI50: 15.5 µM (inactive)
[50]
  GI50: 15.7 µM (inactive)
[51]
  GI50: 6.98 µM (inactive)
[52]
  GI50: 13.2 µM (inactive)
[53]
  GI50: 20.3 µM (inactive)
[54]
  GI50: 13.9 µM (inactive)
[55]
  GI50: 12.6 µM (inactive)
[56]
  GI50: 19.8 µM (inactive)
[57]
  GI50: > 100 µM (inactive)
[58]
  GI50: 10.6 µM (inactive)
[59]
  GI50: 13.8 µM (inactive)

## COc1cccc2c1C(=O)C1=C(C2=O)C(O)CC(C)(C)O1 (configuration not stated)
[1]
  GI50: 58.9 µM (inactive)
[2]
  GI50: 32.4 µM (inactive)
[3]
  GI50: > 100 µM (inactive)
[4]
  GI50: 58.9 µM (inactive)
[5]
  GI50: 26.2 µM (inactive)
[6]
  GI50: 14.4 µM (inactive)
[7]
  GI50: 53.2 µM (inactive)
[8]
  GI50: 24 µM (inactive)
[9]
  GI50: 21 µM (inactive)
[10]
  GI50: 25.6 µM (inactive)
[11]
  GI50: > 100 µM (inactive)
[12]
  GI50: 34.1 µM (inactive)
[13]
  GI50: 54.6 µM (inactive)
[14]
  GI50: 16.6 µM (inactive)
[15]
  GI50: 27.9 µM (inactive)
[16]
  GI50: > 100 µM (inactive)
[17]
  GI50: 22.4 µM (inactive)
[18]
  GI50: > 100 µM (inactive)
[19]
  GI50: 25.5 µM (inactive)
[20]
  GI50: 16.3 µM (inactive)
[21]
  GI50: 43.1 µM (inactive)
[22]
  GI50: 71 µM (inactive)
[23]
  GI50: 49.8 µM (inactive)
[24]
  GI50: 42.4 µM (inactive)
[25]
  GI50: 36.2 µM (inactive)
[26]
  GI50: 37.7 µM (inactive)
[27]
  GI50: 13.1 µM (inactive)
[28]
  GI50: > 100 µM (inactive)
[29]
  GI50: > 100 µM (inactive)
[30]
  GI50: 42.9 µM (inactive)
[31]
  GI50: 70.3 µM (inactive)
[32]
  GI50: 32.5 µM (inactive)
[33]
  GI50: 25.1 µM (inactive)
[34]
  GI50: 23.5 µM (inactive)
[35]
  GI50: 22.3 µM (inactive)
[36]
  GI50: 38.6 µM
[37]
  GI50: 63.7 µM (inactive)
[38]
  GI50: 19.5 µM (inactive)
[39]
  GI50: 36.1 µM (inactive)
[40]
  GI50: 31.6 µM (inactive)
[41]
  GI50: > 100 µM (inactive)
[42]
  GI50: 24.3 µM (inactive)
[43]
  GI50: 11.7 µM (inactive)
[44]
  GI50: 29 µM (inactive)
[45]
  GI50: > 100 µM (inactive)
[46]
  GI50: 76.7 µM (inactive)
[47]
  GI50: 27.7 µM (inactive)
[48]
  GI50: 19.3 µM (inactive)
[49]
  GI50: 33.6 µM (inactive)
[50]
  GI50: 32.1 µM (inactive)
[51]
  GI50: 36.6 µM (inactive)
[52]
  GI50: 55.5 µM (inactive)
[53]
  GI50: 20 µM (inactive)
[54]
  GI50: 28.5 µM (inactive)
[55]
  GI50: 37.9 µM (inactive)
[56]
  GI50: 50.7 µM (inactive)
[57]
  GI50: 28.7 µM (inactive)
[58]
  GI50: 23.4 µM (inactive)
[59]
  GI50: > 100 µM (inactive)
